From ChEMBL document CHEMBL5465560, “Selectivity Literature for EUbOPEN Chemogenomic Library” (2024) come the findings set out here.

In test [1] the target is Hepatocyte growth factor receptor (Homo sapiens, UniProt P08581). Kind of test: (§1) Selectivity interaction (Kinase panel (Z-LYTE Assay)) EUB0001632a MET. The note with it: at 10 µM.
The subject of test [2] is Hepatocyte growth factor receptor (Homo sapiens), P08581 [M1250T]. Described as §1. The note with it: at 10 µM.
In test [3] the target is T1, cAMP-dependent protein kinase catalytic subunit PRKX (Homo sapiens) (UniProt P51817).
T1 sequence (whole entry): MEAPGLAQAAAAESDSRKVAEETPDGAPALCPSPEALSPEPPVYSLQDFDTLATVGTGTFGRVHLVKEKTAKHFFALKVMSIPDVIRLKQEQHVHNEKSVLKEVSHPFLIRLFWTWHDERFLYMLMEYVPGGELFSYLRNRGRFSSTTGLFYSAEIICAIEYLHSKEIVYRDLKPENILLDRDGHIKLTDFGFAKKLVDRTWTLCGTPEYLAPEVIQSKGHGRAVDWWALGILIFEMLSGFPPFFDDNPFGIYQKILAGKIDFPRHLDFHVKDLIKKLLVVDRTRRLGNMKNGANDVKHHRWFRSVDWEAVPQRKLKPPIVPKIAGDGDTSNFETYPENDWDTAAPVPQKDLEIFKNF
Briefly: Selectivity interaction (SelectScreen profiling (Invitrogen)) EUB0000607a PRKX. The note with it: at 2 µM.

Test [4] concerns the target Calcium/calmodulin-dependent protein kinase type II subunit gamma (Homo sapiens) (UniProt Q13555). Kind of test: Selectivity interaction (KinomeScan (DiscoverX)) EUB0000607a CAMK2G. Particulars: at 10 µM.
Test [5] addresses Serine/threonine-protein kinase MRCK beta (Homo sapiens) (UniProt Q9Y5S2). Kind of test: Selectivity interaction (KinomeScan (DiscoverX)) EUB0000655a CDC42BPB. Particulars: at 10 µM.
Test [6] addresses T2, Serine/threonine-protein kinase TAO1 (Homo sapiens) (UniProt Q7L7X3).
T2 sequence (whole entry): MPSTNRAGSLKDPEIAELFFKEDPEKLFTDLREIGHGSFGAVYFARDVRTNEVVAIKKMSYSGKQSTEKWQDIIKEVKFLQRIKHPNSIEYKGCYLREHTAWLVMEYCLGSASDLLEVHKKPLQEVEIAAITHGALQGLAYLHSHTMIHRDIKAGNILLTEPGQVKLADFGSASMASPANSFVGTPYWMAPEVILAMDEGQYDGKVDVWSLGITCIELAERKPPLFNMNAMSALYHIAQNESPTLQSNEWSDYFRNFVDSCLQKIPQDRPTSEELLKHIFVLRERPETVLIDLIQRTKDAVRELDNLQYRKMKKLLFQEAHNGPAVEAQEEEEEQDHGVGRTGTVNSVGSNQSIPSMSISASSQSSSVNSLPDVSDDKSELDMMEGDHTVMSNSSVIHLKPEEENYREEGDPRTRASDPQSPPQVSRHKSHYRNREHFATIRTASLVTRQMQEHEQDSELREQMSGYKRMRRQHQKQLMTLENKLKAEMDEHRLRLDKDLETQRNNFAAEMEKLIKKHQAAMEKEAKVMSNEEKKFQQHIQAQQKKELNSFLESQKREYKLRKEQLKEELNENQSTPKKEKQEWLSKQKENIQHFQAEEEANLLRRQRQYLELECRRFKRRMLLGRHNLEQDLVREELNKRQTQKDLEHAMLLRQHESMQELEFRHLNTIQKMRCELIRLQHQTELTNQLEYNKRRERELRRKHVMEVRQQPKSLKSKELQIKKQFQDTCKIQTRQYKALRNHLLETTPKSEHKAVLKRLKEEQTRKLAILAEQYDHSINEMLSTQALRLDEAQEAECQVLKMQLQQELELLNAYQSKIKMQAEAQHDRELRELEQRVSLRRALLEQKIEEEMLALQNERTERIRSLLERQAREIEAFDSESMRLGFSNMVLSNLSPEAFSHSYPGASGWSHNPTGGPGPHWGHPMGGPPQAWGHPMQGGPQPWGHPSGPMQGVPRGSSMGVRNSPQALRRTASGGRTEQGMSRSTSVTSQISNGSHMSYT
Kind of test: Selectivity interaction (ActivX KiNativ screen (ex vivo kinase selectivity in human PBMCs)) EUB0001619a TAOK1. The class given is cell-based. The note with it: PBMC, at 1 µM.

The target of test [7] is T3, Serine/threonine-protein kinase ULK2 (Homo sapiens) (UniProt Q8IYT8).
T3 sequence (whole entry): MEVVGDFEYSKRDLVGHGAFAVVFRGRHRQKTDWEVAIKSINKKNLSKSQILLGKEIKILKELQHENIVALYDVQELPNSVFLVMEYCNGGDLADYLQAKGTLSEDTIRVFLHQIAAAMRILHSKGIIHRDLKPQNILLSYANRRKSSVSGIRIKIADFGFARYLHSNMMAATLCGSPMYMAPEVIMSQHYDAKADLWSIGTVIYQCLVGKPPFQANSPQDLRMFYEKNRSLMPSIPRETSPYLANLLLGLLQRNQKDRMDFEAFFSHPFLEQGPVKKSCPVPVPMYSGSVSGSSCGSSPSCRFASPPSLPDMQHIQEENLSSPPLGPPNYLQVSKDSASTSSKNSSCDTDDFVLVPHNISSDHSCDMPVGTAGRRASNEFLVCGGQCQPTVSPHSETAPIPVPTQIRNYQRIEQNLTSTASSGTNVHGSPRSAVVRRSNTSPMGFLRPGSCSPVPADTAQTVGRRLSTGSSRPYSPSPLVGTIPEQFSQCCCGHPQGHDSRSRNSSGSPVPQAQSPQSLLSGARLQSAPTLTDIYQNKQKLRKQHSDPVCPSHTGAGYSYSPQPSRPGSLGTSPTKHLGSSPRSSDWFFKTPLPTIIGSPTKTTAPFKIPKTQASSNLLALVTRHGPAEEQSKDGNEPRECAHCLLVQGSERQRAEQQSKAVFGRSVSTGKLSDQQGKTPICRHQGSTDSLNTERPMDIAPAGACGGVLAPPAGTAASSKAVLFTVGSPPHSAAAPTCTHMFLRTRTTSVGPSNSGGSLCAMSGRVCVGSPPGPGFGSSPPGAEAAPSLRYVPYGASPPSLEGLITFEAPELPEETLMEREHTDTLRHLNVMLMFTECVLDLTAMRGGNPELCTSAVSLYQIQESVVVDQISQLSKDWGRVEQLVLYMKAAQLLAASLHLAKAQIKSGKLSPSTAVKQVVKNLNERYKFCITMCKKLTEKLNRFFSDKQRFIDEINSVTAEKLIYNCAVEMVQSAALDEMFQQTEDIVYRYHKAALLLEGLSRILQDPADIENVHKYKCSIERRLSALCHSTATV
Briefly: Selectivity interaction (KinomeScan (DiscoverX)) EUB0001619a ULK2. The note with it: at 1 µM.

Test [8] has as its target Casein kinase I isoform delta (Homo sapiens, UniProt P48730). Briefly: Selectivity interaction (KinomeScan (DiscoverX)) EUB0000618a CSNK1D. The note with it: at 10 µM.
Test [9] deals with Serine/threonine-protein kinase MARK1 (Homo sapiens) (UniProt Q9P0L2). The note with it: at 10 µM.
Serine/threonine-protein kinase MARK1 (Homo sapiens), sequence (Q9P0L2 whole entry, looked up): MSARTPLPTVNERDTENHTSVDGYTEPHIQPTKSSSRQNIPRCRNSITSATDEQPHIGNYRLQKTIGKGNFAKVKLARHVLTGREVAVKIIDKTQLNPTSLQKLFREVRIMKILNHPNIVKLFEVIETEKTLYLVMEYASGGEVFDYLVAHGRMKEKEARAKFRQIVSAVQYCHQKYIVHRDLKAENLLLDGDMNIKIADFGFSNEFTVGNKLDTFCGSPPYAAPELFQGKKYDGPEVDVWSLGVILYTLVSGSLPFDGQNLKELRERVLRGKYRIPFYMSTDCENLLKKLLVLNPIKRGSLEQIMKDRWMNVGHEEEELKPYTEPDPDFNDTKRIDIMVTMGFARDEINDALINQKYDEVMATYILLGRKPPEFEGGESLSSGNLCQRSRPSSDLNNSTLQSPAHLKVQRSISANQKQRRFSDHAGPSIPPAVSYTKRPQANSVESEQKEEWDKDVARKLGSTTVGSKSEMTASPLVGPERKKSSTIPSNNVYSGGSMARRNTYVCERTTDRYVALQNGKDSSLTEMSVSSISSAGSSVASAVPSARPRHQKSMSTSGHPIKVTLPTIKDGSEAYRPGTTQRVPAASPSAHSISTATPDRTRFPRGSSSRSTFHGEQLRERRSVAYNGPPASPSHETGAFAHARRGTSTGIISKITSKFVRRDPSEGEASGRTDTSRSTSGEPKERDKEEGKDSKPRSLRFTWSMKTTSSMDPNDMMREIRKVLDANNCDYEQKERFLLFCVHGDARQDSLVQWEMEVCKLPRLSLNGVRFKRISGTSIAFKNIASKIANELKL

SMILES strings stand for the structures.

Serine/threonine-protein kinase MRCK beta (Homo sapiens), sequence (Q9Y5S2 whole entry): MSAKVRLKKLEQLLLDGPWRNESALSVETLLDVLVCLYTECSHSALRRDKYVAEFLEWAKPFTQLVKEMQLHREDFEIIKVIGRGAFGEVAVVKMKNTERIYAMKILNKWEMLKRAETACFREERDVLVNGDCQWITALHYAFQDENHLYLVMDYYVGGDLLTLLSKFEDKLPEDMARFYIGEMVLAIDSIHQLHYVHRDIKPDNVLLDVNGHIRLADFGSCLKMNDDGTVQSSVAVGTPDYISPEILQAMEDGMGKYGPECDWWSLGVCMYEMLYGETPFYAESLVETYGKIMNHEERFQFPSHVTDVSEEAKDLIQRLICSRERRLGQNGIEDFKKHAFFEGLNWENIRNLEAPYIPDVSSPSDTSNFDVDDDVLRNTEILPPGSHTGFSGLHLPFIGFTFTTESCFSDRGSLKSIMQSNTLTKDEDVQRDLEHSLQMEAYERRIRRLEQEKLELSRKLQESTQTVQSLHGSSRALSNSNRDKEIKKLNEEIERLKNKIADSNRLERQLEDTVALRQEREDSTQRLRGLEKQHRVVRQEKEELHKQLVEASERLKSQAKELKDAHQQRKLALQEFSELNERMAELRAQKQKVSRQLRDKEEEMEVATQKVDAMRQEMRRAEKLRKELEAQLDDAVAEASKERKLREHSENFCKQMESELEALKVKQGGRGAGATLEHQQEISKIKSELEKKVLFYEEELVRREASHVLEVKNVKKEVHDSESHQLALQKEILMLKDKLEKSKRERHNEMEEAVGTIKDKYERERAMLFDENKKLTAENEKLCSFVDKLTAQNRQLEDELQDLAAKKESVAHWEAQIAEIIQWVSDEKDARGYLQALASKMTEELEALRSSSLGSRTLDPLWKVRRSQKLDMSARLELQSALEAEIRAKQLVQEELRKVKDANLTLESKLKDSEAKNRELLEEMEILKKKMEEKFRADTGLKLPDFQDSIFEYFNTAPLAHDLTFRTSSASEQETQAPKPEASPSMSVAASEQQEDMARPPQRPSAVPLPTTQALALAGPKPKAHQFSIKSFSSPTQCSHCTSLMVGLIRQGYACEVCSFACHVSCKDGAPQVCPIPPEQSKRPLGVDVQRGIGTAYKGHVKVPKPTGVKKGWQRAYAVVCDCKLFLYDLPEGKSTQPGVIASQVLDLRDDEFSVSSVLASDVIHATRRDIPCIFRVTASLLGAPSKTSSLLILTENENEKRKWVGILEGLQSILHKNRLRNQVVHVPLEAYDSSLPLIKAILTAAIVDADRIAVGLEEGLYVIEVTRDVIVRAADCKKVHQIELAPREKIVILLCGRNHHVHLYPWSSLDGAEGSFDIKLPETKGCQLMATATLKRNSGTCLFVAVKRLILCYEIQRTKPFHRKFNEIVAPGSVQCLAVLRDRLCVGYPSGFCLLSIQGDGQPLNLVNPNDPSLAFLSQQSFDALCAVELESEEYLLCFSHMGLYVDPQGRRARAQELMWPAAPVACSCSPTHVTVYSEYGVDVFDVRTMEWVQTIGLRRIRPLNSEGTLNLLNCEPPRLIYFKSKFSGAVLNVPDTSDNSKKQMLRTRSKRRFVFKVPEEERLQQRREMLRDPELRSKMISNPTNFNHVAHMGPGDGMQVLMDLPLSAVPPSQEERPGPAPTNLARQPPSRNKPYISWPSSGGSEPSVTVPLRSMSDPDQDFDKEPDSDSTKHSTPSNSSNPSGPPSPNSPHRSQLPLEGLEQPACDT
Calcium/calmodulin-dependent protein kinase type II subunit gamma (Homo sapiens), sequence (Q13555 whole entry): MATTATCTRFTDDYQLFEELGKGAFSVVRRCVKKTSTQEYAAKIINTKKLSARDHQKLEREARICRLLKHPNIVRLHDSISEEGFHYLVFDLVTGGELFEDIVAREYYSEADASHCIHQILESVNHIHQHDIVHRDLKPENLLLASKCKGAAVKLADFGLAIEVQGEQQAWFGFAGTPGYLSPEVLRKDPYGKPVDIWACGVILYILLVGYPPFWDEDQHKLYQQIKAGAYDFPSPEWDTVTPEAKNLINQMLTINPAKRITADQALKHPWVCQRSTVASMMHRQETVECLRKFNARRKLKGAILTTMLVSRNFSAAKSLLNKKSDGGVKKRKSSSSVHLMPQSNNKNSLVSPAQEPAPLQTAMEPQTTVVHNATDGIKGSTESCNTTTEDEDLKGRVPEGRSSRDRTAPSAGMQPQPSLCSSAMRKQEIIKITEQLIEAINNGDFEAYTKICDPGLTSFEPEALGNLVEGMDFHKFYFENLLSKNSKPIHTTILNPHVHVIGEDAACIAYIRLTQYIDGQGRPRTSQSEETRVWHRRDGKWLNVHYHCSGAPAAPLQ
Hepatocyte growth factor receptor, sequence (P08581 whole entry): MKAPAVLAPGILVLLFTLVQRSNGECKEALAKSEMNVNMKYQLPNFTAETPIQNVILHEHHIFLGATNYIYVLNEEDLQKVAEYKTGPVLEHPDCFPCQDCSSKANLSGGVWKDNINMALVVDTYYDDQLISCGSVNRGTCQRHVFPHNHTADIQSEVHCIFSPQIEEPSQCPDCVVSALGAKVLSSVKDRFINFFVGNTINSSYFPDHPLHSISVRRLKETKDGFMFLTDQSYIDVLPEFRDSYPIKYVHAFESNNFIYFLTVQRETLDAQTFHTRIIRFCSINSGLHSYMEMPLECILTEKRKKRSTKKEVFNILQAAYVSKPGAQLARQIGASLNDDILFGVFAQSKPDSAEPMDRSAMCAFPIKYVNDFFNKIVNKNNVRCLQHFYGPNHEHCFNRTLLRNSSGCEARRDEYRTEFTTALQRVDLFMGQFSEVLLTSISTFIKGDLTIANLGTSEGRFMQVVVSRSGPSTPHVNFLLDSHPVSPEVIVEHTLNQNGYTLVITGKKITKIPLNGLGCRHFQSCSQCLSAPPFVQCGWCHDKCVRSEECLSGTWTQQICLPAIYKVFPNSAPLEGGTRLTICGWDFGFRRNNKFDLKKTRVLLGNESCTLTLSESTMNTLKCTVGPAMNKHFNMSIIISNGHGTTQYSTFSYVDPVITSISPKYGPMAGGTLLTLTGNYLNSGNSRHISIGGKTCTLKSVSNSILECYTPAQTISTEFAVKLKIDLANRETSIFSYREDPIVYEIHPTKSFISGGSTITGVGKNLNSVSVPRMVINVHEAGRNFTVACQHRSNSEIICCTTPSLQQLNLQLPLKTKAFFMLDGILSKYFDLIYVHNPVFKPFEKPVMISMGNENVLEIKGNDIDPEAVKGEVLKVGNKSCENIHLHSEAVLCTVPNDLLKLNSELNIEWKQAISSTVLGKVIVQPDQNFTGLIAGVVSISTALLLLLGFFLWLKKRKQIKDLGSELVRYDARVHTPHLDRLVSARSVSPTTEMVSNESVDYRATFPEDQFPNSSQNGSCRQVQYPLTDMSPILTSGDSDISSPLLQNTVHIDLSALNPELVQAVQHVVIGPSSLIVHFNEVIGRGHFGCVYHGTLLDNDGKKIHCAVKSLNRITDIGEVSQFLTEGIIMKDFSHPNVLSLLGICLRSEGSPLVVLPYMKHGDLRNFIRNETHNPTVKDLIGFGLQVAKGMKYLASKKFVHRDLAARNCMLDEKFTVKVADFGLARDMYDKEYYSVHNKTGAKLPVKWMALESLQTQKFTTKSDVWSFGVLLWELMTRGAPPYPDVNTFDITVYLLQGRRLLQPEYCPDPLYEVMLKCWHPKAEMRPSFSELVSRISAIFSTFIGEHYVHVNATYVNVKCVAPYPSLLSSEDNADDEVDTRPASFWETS
Casein kinase I isoform delta, sequence (P48730 whole entry, looked up, canonical isoform): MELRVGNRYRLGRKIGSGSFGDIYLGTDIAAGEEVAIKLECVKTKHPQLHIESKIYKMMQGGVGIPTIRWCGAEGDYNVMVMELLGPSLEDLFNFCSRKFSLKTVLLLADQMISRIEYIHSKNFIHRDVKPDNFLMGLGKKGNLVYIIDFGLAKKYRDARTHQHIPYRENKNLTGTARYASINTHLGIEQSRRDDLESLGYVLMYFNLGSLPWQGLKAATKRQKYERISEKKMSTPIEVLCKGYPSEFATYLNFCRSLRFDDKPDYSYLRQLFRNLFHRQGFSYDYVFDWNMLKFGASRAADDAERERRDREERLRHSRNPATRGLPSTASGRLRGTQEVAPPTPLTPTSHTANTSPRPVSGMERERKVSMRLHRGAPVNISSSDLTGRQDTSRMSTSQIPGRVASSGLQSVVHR

On to `Cn1cc(-n2cnc3c(NCc4nc5cc(Cl)c(Cl)cc5[nH]4)nc(N4CCOCC4)nc32)cn1`, for which the % of control in test [1] was -11.4%; in [2], 1.3%.
Turning to `CNC(=O)Nc1ccc(-c2nc(N3CC4CCC(C3)O4)c3cnn(C4CCC5(CC4)OCCO5)c3n2)cc1`, the % of inhibition in test [3] was 5%. Further, the % of control in test [4] was determined as 100%.
Take `CN(C)CCOc1ccc(-c2nc(-c3ccncc3)c(-c3ccc4c(c3)CC/C4=N\O)[nH]2)cc1`: the % of control in test [5] was found to be 89%.
With `N#Cc1cccc(-c2c[nH]c3ncnc(N4CCOCC4)c23)c1`, the % of inhibition in test [6] turned out to be 6%. Further, the % of control in test [7] turned out to be 69%.
Turning to `O[C@H]1CC[C@H](Nc2ncc3nc(Nc4c(F)cc(F)cc4F)n([C@H]4CCOC4)c3n2)CC1`, the % of control in test [8] came out at 83%.
Take `COCC(=O)NC/C=C/c1ccc2ncnc(Nc3ccc(Oc4ccc(C)nc4)c(C)c3)c2c1` [CP-724714]: in [9], the % of control turned out to be 100%.
